In brackets after ≈: the same amount, converted by molar mass. A value given as a limit tells only on which side of the number the result lay.

In test [1] the target is T1, Pseudomonas aeruginosa LpxC enzyme (Pseudomonas aeruginosa, UniProt P47205).
T1 construct: made in house; host or cells: E. coli
T1 sequence (P47205 1-303): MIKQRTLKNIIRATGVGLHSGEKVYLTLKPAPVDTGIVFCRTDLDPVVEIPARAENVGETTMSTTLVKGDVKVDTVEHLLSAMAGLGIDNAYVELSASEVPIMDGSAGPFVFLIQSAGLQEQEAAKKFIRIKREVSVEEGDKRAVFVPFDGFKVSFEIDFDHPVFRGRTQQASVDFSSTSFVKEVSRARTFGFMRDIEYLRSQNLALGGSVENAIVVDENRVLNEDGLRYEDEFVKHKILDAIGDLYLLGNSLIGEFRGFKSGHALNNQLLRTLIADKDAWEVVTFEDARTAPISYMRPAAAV
The test is described as follows: IC50 assay, LpxC enzyme from P. aeruginosa (PA LpxC enzyme IC50). In kind it is biochemical. To be noted: Table 2; LpxC enzyme 0.1 nM, 25° C., 1 hour; read-out: PA:IC50. The essentials: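 The LpxC reaction ran 1 hour and was stopped with HCl. Substrate-to-product conversion was measured by RapidFire mass spectrometry, and IC50 values were calculated from percent conversion relative to a no-enzyme control.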

The test system of test [2] is Acinetobacter baumannii/haemolyticus, multidrug-resistant clinical isolate (AB-3167). The test is described as follows: MIC determination, AB-3167. In kind it is cell-based. As to conditions: Table 2, lower of duplicate values. The essentials: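 Broth dilution MIC per CLSI M7-A8, 2-fold drug series, overnight incubation, lowest concentration visibly inhibiting growth against drug-free control. Run in duplicate, lower value reported; duplicates differing >2-fold repeated; QC strains and reference compounds required in range.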

Test [3] has as its system Escherichia coli EC-1: VOGEL, mouse virulent. The test is described as follows: MIC determination, EC-1. In kind it is cell-based. As to conditions: Escherichia coli, read-out: EC-1 (MIC), Table 2, lower of duplicate values. The method, boiled down: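 MIC against mouse-virulent E. coli EC-1 (VOGEL) was determined by CLSI M7-A8 broth dilution with 2-fold drug increments and overnight incubation. The MIC is the lowest concentration with no visible growth versus drug-free control. Tests were run in duplicate and the lower value reported if within 2-fold, with QC organisms and reference drugs in each run.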

In test [4] the test system is Pseudomonas aeruginosa UI-18: wild-type (PA-7). Briefly: MIC determination, PA-7. In kind it is cell-based. As to conditions: Table 2, lower of duplicate values. The method, boiled down:
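P. aeruginosa UI-18 (wild-type) tested by CLSI broth dilution (M7-A8), 2-fold compound series incubated overnight. MIC read visually as lowest concentration preventing growth versus drug-free control; duplicates within 2-fold, lower value reported, with QC organisms and reference compounds in range.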

On to `C[C@@](CCn1cc(F)c(-c2ccc(-n3ncnn3)cc2)cc1=O)(C(=O)NO)S(C)(=O)=O` [Example 1, (2R)-4-{5-fluoro-2-oxo-4-[4-(2H-tetrazol-2-yl)phenyl]pyridin-1(2H)-yl}-N-hydroxy-2-methyl-2-(methylsulfonyl)butanamide], for which the IC50 in test [1] stood at 1.49 nM. The MIC in test [2] was over 64 mg/L; in test [3], over 64 mg/L; in test [4], 32 mg/L (≈ 71 µM).

For the molecule `COc1ccc(-c2ccc(-c3cc(=O)n(CC[C@](C)(C(=O)NO)S(C)(=O)=O)cc3F)cc2)cn1` [Example 32, (2R)-4-{5-Fluoro-4-[4-(6-methoxypyridin-3-yl)phenyl]-2-oxopyridin-1(2H)-yl}-N-hydroxy-2-methyl-2-(methylsulfonyl)butanamide], the IC50 in test [1] is 0.4 nM. The results for the MIC in test [2], in test [3] and in test [4] were over 64 mg/L, at most 0.06 mg/L and 1 mg/L (≈ 2.04 µM), respectively.

For `COc1cccc(-c2cc(=O)n(CC[C@](C)(C(=O)NO)S(C)(=O)=O)cc2F)c1` [Example 25, (2R)-4-[5-Fluoro-4-(3-methoxyphenyl)-2-oxopyridin-1(2H)-yl]-N-hydroxy-2-methyl-2-(methylsulfonyl)butanamide], the IC50 in test [1] is 0.412 nM. The results for the MIC in test [2], in test [3] and in test [4] were over 64 mg/L, 1 mg/L (≈ 2.42 µM) and 2 mg/L (≈ 4.85 µM), respectively.

In the case of `C[C@@](CCn1cc(F)c(-c2ccc(OC(F)F)cc2)cc1=O)(C(=O)NO)S(C)(=O)=O` [Example 33, (2R)-4-{4-[4-(Difluoromethoxy)phenyl]-5-fluoro-2-oxopyridin-1(2H)-yl}-N-hydroxy-2-methyl-2-(methylsulfonyl)butanamide], in test [1], the IC50 was determined as 0.0606 nM. In addition, the results for the MIC in test [2], in test [3] and in test [4] were over 64 mg/L, 0.5 mg/L (≈ 1.12 µM) and 0.5 mg/L (≈ 1.12 µM), respectively.

As for `C[C@@](CCn1cc(F)c(-c2ccc(F)cc2)cc1=O)(C(=O)NO)S(C)(=O)=O` [Example 31, (2R)-4-[5-Fluoro-4-(4-fluorophenyl)-2-oxopyridin-1(2H)-yl]-N-hydroxy-2-methyl-2-(methylsulfonyl)butanamide], the IC50 in test [1] amounted to 0.213 nM. Also, the MIC is over 64 mg/L in test [2], 1 mg/L (≈ 2.5 µM) in test [3] and 0.5 mg/L (≈ 1.25 µM) in test [4].

For the molecule `C[C@@](CCn1cc(F)c(-c2ccc(-c3ccon3)cc2)cc1=O)(C(=O)NO)S(C)(=O)=O` [Example 41, (2R)-4-[5-Fluoro-4-(4-isoxazol-3-ylphenyl)-2-oxopyridin-1(2H)-yl]-N-hydroxy-2-methyl-2-(methylsulfonyl)butanamide], the IC50 in test [1] was 0.237 nM. In addition, the MIC in test [2] amounted to 16 mg/L (≈ 35.6 µM); in test [3] it was 0.5 mg/L (≈ 1.11 µM); in test [4], 0.5 mg/L (≈ 1.11 µM).

For `COc1cnc(-c2ccc(-c3cc(=O)n(CC[C@](C)(C(=O)NO)S(C)(=O)=O)cc3F)cc2)nc1` [Example 21, (2R)-4-{5-Fluoro-4-[4-(5-methoxypyrimidin-2-yl)phenyl]-2-oxopyridin-1(2H)-yl}-N-hydroxy-2-methyl-2-(methylsulfonyl)butanamide], the IC50 in test [1] came out at 0.436 nM. In addition, the MIC in test [2] was over 64 mg/L; in test [3] it was 0.125 mg/L (≈ 0.255 µM); in test [4] it was 1 mg/L (≈ 2.04 µM).

On to `COc1cccc(-c2cc(=O)n(CC[C@](C)(C(=O)NO)S(C)(=O)=O)cc2F)c1F` [Example 17, (2R)-4-[5-fluoro-4-(2-fluoro-3-methoxyphenyl)-2-oxopyridin-1(2H)-yl]-N-hydroxy-2-methyl-2-(methylsulfonyl)butanamide], for which the IC50 in test [1] was determined as 0.5 nM. Further, the MIC in test [2] was over 64 mg/L; in test [3] it was 0.5 mg/L (≈ 1.16 µM); in test [4] it was 1 mg/L (≈ 2.32 µM).

Take `Cc1ccc(-c2cc(=O)n(CC[C@](C)(C(=O)NO)S(C)(=O)=O)cc2F)cc1` [Example 29, (2R)-4-[5-Fluoro-4-(4-methylphenyl)-2-oxopyridin-1(2H)-yl]-N-hydroxy-2-methyl-2-(methylsulfonyl)butanamide]: in test [1], the IC50 came to 0.514 nM. Besides, the MIC in test [2] is over 64 mg/L; in test [3], 0.5 mg/L (≈ 1.26 µM); in test [4], 0.5 mg/L (≈ 1.26 µM).

Turning to `C[C@@](CCn1cc(F)c(-c2ccc(-n3nccn3)c(F)c2)cc1=O)(C(=O)NO)S(C)(=O)=O` [Example 36, (2R)-4-{5-Fluoro-4-[3-fluoro-4-(2H-1,2,3-triazol-2-yl)phenyl]-2-oxopyridin-1(2H)-yl}-N-hydroxy-2-methyl-2-(methylsulfonyl)butanamide], the IC50 in test [1] is 0.398 nM. For the same molecule, the MIC in test [2] is over 64 mg/L; in test [3] it was 0.5 mg/L (≈ 1.07 µM); in test [4], 1 mg/L (≈ 2.14 µM).

For the molecule `Cc1cnn(-c2ccc(-c3cc(=O)n(CC[C@](C)(C(=O)NO)S(C)(=O)=O)cc3F)cc2)n1` [Example 23, (2R)-4-{5-Fluoro-4-[4-(4-methyl-2H-1,2,3-triazol-2-yl)phenyl]-2-oxopyridin-1(2H)-yl}-N-hydroxy-2-methyl-2-(methylsulfonyl)butanamide], the IC50 in test [1] turned out to be 0.287 nM. Further, the values for the MIC in test [2], in test [3] and in test [4] were over 64 mg/L, 0.06 mg/L (≈ 0.129 µM) and 0.5 mg/L (≈ 1.08 µM), respectively.

Take `C[C@@](CCn1cc(F)c(-c2ccc(OC(F)F)c(F)c2)cc1=O)(C(=O)NO)S(C)(=O)=O` [Example 35, (2R)-4-{4-[4-(difluoromethoxy)-3-fluorophenyl]-5-fluoro-2-oxopyridin-1(2H)-yl}-N-hydroxy-2-methyl-2-(methylsulfonyl)butanamide]: the IC50 in test [1] was 0.589 nM. Further, the results for the MIC in test [2], in test [3] and in test [4] were over 64 mg/L, 1 mg/L (≈ 2.14 µM) and 0.5 mg/L (≈ 1.07 µM), respectively.

Take `[2H]C([2H])([2H])c1ccc(-c2cc(=O)n(CC[C@](C)(C(=O)NO)S(C)(=O)=O)cc2F)cc1` [Example 43, (2R)-4-[5-Fluoro-4-(4-trideuteromethylphenyl)-2-oxopyridin-1(2H)-yl]-N-hydroxy-2-methyl-2-(methylsulfonyl)butanamide]: in test [1], the IC50 worked out at 0.653 nM. Besides, the minimum inhibitory concentration (MIC) in test [2] is over 64 mg/L; in test [3], 0.25 mg/L (≈ 0.626 µM); in test [4] it was 0.5 mg/L (≈ 1.25 µM).

For the molecule `COc1ccc(-c2cc(=O)n(CC[C@](C)(C(=O)NO)S(C)(=O)=O)cc2F)cc1` [Example 28, (2R)-4-[5-Fluoro-4-(4-methoxyphenyl)-2-oxopyridin-1(2H)-yl]-N-hydroxy-2-methyl-2-(methylsulfonyl)butanamide], the IC50 in test [1] stood at 0.564 nM. For the same molecule, the MIC was over 64 mg/L in test [2], 1 mg/L (≈ 2.42 µM) in test [3] and 0.5 mg/L (≈ 1.21 µM) in test [4].

For `[2H]C([2H])([2H])Oc1ccc(-c2cc(=O)n(CC[C@](C)(C(=O)NO)S(C)(=O)=O)cc2F)cc1` [Example 44, (2R)-4-[5-Fluoro-4-(4-trideuteromethoxyphenyl)-2-oxopyridin-1(2H)-yl]-N-hydroxy-2-methyl-2-(methylsulfonyl)butanamide], the IC50 in test [1] was determined as 0.664 nM. In addition, the MIC in test [2] was over 64 mg/L; in test [3], 0.25 mg/L (≈ 0.602 µM); in test [4], 0.25 mg/L (≈ 0.602 µM).

For the molecule `Cc1cc(-c2cc(=O)n(CC[C@](C)(C(=O)NO)S(C)(=O)=O)cc2F)ccc1F` [Example 14, (2R)-4-[5-Fluoro-4-(4-fluoro-3-methylphenyl)-2-oxopyridin-1(2H)-yl]-N-hydroxy-2-methyl-2-(methylsulfonyl)butanamide], in test [1], the IC50 stood at 0.758 nM. The MIC is over 64 mg/L in test [2], 0.5 mg/L (≈ 1.21 µM) in test [3] and 0.5 mg/L (≈ 1.21 µM) in test [4].

For the molecule `C[C@@](CCn1cc(F)c(-c2ccc(OC(F)(F)F)cc2)cc1=O)(C(=O)NO)S(C)(=O)=O` [Example 30, (2R)-4-{5-Fluoro-2-oxo-4-[4-(trifluoromethoxy)phenyl]pyridin-1(2H)-yl}-N-hydroxy-2-methyl-2-(methylsulfonyl)butanamide], the IC50 in test [1] stood at 0.106 nM. Further, the MIC in test [2] is over 64 mg/L; in test [3], 0.25 mg/L (≈ 0.536 µM); in test [4], 0.5 mg/L (≈ 1.07 µM).

Consider `CCCc1ccc(-c2cc(=O)n(CC[C@](C)(C(=O)NO)S(C)(=O)=O)cc2F)cc1` [Example 11, (2R)-4-[5-Fluoro-2-oxo-4-(4-propylphenyl)pyridin-1(2H)-yl]-N-hydroxy-2-methyl-2-(methylsulfonyl)butanamide], for which, in test [1], the IC50 is 0.482 nM. Moreover, the MIC in test [2] is over 64 mg/L; in test [3], 0.125 mg/L (≈ 0.294 µM); in test [4], 0.5 mg/L (≈ 1.18 µM).

In the case of `Cc1cccc(-c2cc(=O)n(CC[C@](C)(C(=O)NO)S(C)(=O)=O)cc2F)c1` [Example 13, (2R)-4-[5-Fluoro-4-(3-methylphenyl)-2-oxopyridin-1(2H)-yl]-N-hydroxy-2-methyl-2-(methylsulfonyl)butanamide], in test [1], the IC50 was found to be 1.05 nM. Besides, the values for the MIC in test [2], in test [3] and in test [4] were over 64 mg/L, 1 mg/L (≈ 2.52 µM) and 1 mg/L (≈ 2.52 µM), respectively.

Values taken from patent US8624034B2, “Fluoro-pyridinone derivatives useful as antibacterial agents” (Pfizer Inc., priority 2011, dated 2014).
